Test results as given in publication PMC3695784, “2,3-cis-2R,3R-(−)-epiafzelechin-3-O-p-coumarate, a novel flavan-3-ol isolated from Fallopia convolvulus seed, is an estrogen receptor agonist in human cell lines” (BMC Complementary and Alternative Medicine, 2013).

Assays:
SKBR3 cells [1] = assay: Control SKBR3 cells with ERE-Luc plasmid but not transfected with ER; format: cell-based, human; details: E2 10 nM, 24 h
Method: SKBR3 cells were transfected with 0 .2 µ g ERE-Luc plasmid, 0.05 µ g of either pcDNA3ERα or pcDNA3ERβ, and 0.55 µg pcDNA3.1+. Control SKBR3 cells were transfected with 0.2 µ g ERE-Luc plasmid and 0.6 µ g pcDNA3.1+. Cells were treated for 24 h, lysed, and luciferase activity assessed. Luciferaseexpression was normalized using the Bradford assay.

ERα or ERβ [2] = details: E2 standard set as 100%; cited from earlier work
ERα or ERβ [3] = details: greater in ERβ; cited from earlier work
SKBR3 cells [4] = assay: Toxicity observed in transfected SKBR3 cells (protein concentration, RLU, cell death)
Method: SKBR3 cells were grown and maintained in high-glucose DMEM and 10% premium FBS. SKBR3 cells were cultured in phenol red-free medium supplemented with 10% charcoal-stripped FBS for 48 h before transfection and seeded in 24-well plates at a density of 300,000 cells/mL. 24 h after plating, cells were transfected for 24 h using Lipofectamine reagent (2 μL/well) according to the manufacturer’s recommendations (0.2 μg of ER-responsive reporter plasmid pGudLuc7ere [32] and 0.05 μg receptor plasmids (ERα/pcDNA3 or ERβ/pcDNA3) or empty vector (pcDNA3.1+) per well, normalizing μg DNA/well to 0.8 μg/well with empty vector). 24 h post-transfection, SKBR3 cells were incubated for 24 h with chemical, the cells harvested, and both protein concentration and luciferase activity determined. Protein concentration was determined using the Bradford assay [35]. Briefly, 5 μL/well SKBR3 lysate was incubated for 5 min at room temperature with 1X Bradford Reagent (200 μL). Protein concentration was calibrated against a standard curve of bovine serum albumin (0.05-0.5 mg/mL) on the same plate and was measured as mg protein/mL using a PhosphorImager (Molecular Dynamics).

human ERβ = molecular target: T1, human ERβ (Homo sapiens, UniProt Q92731); assay: SKBR3 cells transiently transfected with ERβ and ER-responsive luciferase reporter; format: cell-based; details: for maximum luciferase induction, percent of maximum E2 activity: ERβ-transfected SKBR3, 10 nM E2 = 100%, normalized to protein
T1 construct: human ERβ segment (530 aa, GenBank: AF051427.1); expressed in transfected cells; host or cells: SKBR3 (human breast carcinoma), transient transfection with ERβ/pcDNA3
T1 sequence (Q92731 whole entry): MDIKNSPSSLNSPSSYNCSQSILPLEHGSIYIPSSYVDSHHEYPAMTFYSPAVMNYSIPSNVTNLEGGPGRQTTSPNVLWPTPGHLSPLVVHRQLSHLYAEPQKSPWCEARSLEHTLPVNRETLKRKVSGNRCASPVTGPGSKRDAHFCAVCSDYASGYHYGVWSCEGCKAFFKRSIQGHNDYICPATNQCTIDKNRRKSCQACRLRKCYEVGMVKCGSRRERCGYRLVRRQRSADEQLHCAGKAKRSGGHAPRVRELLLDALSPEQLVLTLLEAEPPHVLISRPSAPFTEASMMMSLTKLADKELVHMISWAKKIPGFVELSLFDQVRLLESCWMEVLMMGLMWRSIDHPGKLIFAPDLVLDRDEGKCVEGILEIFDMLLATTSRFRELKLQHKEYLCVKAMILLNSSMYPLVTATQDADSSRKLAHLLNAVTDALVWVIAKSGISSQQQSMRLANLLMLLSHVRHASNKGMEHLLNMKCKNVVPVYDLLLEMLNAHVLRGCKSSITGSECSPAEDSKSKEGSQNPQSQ
Description: (§1) The human ERβ expression plasmid (ERβ/pcDNA3) was constructed by PCR amplification of the human ERβ segment (530 aa, GenBank: AF051427.1) out of pCMV5 (kindly provided by Dr. John Katzenellenbogen, University of Illinois) and insertion of this fragment at BstEII and AflII restriction sites into the modified pcDNA3 construct, which was previously described. […] The human ERα expression plasmid, pcDNA3.1 + ERα, was purchased from Missouri S&T cDNA Resouce Center and was confirmed by restriction digestion. […] The generated plasmids were verified by DNA sequencing. Plasmids ERβ/pcDNA3 and ERα/pcDNA3were used as templates for in vitro expression (Additional file 2); ERα and ERβ were synthesized in vitro using the TNT Quick coupled transcription/translation rabbit reticulocyte lysate system (Promega). Briefly, ^35S-Radiolabeled hERα and hERβ were synthesized in separate reactions in vitro according to manufacturer’s protocol, denatured, and subjected to SDS-polyacrylamide gel electrophoresis, and the kDa of each protein was determined by autoradiography of the dried gel.
(§2) Protein concentration was determined using the Bradford assay.
(§3) Luciferase activity was expressed as relative light units (RLU) for assays using BG1Luc4E2 cells or as a ratio of luciferase RLU/mg protein for assays using SKBR3 cells. Protein amount (mg) was calculated from concentrations obtained in Bradford assay and the respective luciferase RLU was divided by mg protein to obtain luciferase RLU/mg protein. Average luciferase RLU (or luciferase RLU/mg protein) values were calculated from triplicate wells. Solvent luciferase RLU (or luciferase RLU/mg) was subtracted from luciferase RLU induced by chemical. In the case of extract and fractions, luciferase RLU induced by method blank was subtracted from luciferase RLU induced by extract or fraction. […] The Student’s t-test (2-tailed, paired) was used to establish significant difference of chemical/fraction/extract activity from that of solvent or method blank (p ≤ 0.05), and dose–response curves were fitted using a sigmoidal Hill’s 4-parameter algorithm (SigmaPlot v.9.0, Systat, San Jose, CA), as described previously. Half-maximal inductions of each treatment (EC50) were determined as described in [34].

human ERα = human ERα (Homo sapiens, UniProt P03372); assay: SKBR3 cells transiently transfected with ERα and ER-responsive luciferase reporter; format: cell-based
human ERα, sequence (P03372 311-547): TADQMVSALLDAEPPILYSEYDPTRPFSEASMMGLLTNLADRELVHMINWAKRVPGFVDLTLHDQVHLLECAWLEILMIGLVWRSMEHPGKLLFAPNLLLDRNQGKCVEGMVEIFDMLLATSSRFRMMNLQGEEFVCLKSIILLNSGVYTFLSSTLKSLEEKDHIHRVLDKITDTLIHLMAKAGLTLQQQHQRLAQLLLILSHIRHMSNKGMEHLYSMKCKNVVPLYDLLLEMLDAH
Description: as §1, §2
Luciferase activity was expressed as relative light units (RLU) for assays using BG1Luc4E2 cells or as a ratio of luciferase RLU/mg protein for assays using SKBR3 cells. Protein amount (mg) was calculated from concentrations obtained in Bradford assay and the respective luciferase RLU was divided by mg protein to obtain luciferase RLU/mg protein. Average luciferase RLU (or luciferase RLU/mg protein) values were calculated from triplicate wells. Solvent luciferase RLU (or luciferase RLU/mg) was subtracted from luciferase RLU induced by chemical. In the case of extract and fractions, luciferase RLU induced by method blank was subtracted from luciferase RLU induced by extract or fraction. […] Half-maximal inductions of each treatment (EC50) were determined as described in [34].

estrogen receptor = molecular target: T2, estrogen receptor (Homo sapiens, UniProt P03372); assay: BG1Luc4E2 stably transfected estrogen-responsive luciferase reporter bioassay; format: cell-based
T2 construct: the BG1Luc4E2 cell line endogenously expresses ERα; endogenous in cells; host or cells: BG1Luc4E2 (human ovarian carcinoma, stably transfected ERE-luciferase reporter)
T2 sequence (P03372 whole entry): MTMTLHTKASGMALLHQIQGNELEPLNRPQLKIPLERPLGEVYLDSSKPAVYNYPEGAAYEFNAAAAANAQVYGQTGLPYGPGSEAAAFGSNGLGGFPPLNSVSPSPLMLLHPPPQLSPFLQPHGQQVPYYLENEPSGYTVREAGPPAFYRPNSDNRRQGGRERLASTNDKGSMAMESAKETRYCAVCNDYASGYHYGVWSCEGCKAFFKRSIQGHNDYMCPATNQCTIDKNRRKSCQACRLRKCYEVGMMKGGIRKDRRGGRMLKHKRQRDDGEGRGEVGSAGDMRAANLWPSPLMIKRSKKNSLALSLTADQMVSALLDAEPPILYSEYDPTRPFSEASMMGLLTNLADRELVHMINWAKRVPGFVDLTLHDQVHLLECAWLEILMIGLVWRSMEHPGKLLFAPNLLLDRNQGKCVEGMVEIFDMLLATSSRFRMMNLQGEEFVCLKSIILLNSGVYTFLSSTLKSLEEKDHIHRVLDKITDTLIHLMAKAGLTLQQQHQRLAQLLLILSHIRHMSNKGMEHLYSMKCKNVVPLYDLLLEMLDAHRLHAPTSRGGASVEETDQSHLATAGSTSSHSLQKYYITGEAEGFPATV
Method: as §2, §3

BG1Luc4E2 cells = assay: Cell death/toxicity observed in BG1Luc4E2 bioassay; format: cell-based, human
Method: Method blank treatments were included if applicable. […] Protein concentration was determined using the Bradford assay.

C[C@]12CC[C@@H]3c4ccc(O)cc4CC[C@H]3[C@@H]1CC[C@@H]2O [E2, 17-β-estradiol]
luciferase expression in cells not transfected with ER (SKBR3 cells [1]): do not express luciferase

COc1ccc(-c2coc3cc(O)cc(O)c3c2=O)cc1 [biochanin A]
relative binding affinity, ERβ versus ERα (ERα or ERβ [2]): greater to ERβ than to ERα

O=c1oc2cc(O)ccc2c2oc3cc(O)ccc3c12 [coumestrol]
relative binding affinity, ERβ versus ERα (ERα or ERβ [2]): greater to ERβ than to ERα

O=c1c(-c2ccc(O)cc2)coc2cc(O)ccc12 [diadzein]
relative binding affinity, ERβ versus ERα (ERα or ERβ [2]): greater to ERβ than to ERα

Cc1cc(O)c2c(c1)C(=O)c1cc(O)cc(O)c1C2=O [emodin, reference compound]
REP in ERβ-transfected versus ERα-transfected yeast cells (ERα or ERβ [3]): approximately one order of magnitude
concentrations toxic to SKBR3 cells (SKBR3 cells [4]): greater than 10 μM
maximum luciferase induction, percent of maximum E2 activity (human ERβ): 127 ± 26%
EC50 (human ERβ; SKBR3 (ERβ), luciferase, 24 h, read-out: EC50 (concentration for half-maximal induction)): 3 µM

O=c1c(-c2ccc(O)cc2)coc2cc(O)cc(O)c12 [genistein, reference compound]
concentrations resulting in significantly decreased RLU (SKBR3 cells [4]): greater than 10 μM

O=C(C=Cc1ccc(O)cc1)OC1Cc2c(O)cc(O)cc2OC1c1ccc(O)cc1 [rhodoeosein, 2,3-cis-(2R,3R)-(−)-epiafzelechin-3-O-p-coumarate]
maximum luciferase induction, percent of maximum E2 activity (human ERα; ERα-transfected SKBR3, 10 nM E2 = 100%, normalized to protein): 78 ± 8%
REP (relative estrogenic potency = EC50 E2/EC50 chemical) (human ERα; SKBR3 (ERα)): 3.4 × 10^-6
EC50 (human ERα; SKBR3 (ERα), luciferase, 24 h, read-out: EC50 (concentration for half-maximal induction)): 5.8 µM
EC50 (estrogen receptor; BG1Luc4E2 (ovarian), luciferase, 24 h, read-out: EC50 (concentration for half-maximal induction)): 120 µM
concentrations resulting in no luciferase induction (estrogen receptor; BG1Luc4E2 cells): below 31.6 μM
orders of magnitude weaker in potency than the E2 standard (estrogen receptor; BG1Luc4E2 cells): approximately 7 orders of magnitude
maximum luciferase induction, percent of maximum E2 activity (estrogen receptor; BG1Luc4E2 cells, 1 nM E2 = 100%, 24 h): > 400%
luciferase induction, percent of maximum E2 activity (estrogen receptor; BG1Luc4E2 cells, 119 μM and 158 μM, superinduction): > 400%
concentrations resulting in significantly decreased protein concentration (SKBR3 cells [4]): greater than 100 μM
effect on cells at 0.316 mM (SKBR3 cells [4]): caused cell death
concentrations that killed BG1Luc4E2 cells (BG1Luc4E2 cells; 24 h incubation): ≥ 250 µM
effect on cells at 0.25, 0.316, and 1 mM (BG1Luc4E2 cells; BG1Luc4E2 cells): caused cell death
toxicity at 197 μM (BG1Luc4E2 cells; BG1Luc4E2 cells, 197 μM): no toxicity
maximum luciferase induction, percent of maximum E2 activity (human ERβ): 80 ± 10%
REP (relative estrogenic potency = EC50 E2/EC50 chemical) (human ERβ; SKBR3 (ERβ)): 1.5 × 10^-5
